Data taken from patent publication US8003602B2 (priority 2006, dated 2011).
Values after ≈ are worked out from the molar mass of the structure shown. Structures can show the parent of a compound that is named as a salt.

What was measured:
E. faecium (R-2) = type: cell-based, Enterococcus faecium; settings: E. faecium R-2 (VRE)
Text: (§1) The in-vitro potency was established by minimum inhibitory concentration (MIC) determinations of the compound PM181104 against bacterial strains, by using the Macro-broth dilution method as per National Committee for Clinical Laboratory Standards (2000) guidelines [Journal of Anti-microbial Chemotherapy, 2002, 50, 125-128 (Cross Reference 8: Methods for Dilution Antimicrobial Susceptibility Tests for Bacteria that Grow Aerobically-Fifth Edition: Approved Standard M7-A5. NCCLS, Wayne, Pa., USA)]. Unless stated otherwise, Mueller-Hinton broth was used as nutrient medium for the assay. Linezolid (manufactured by Glenmark Pharma Ltd; Batch no: K2005028) was used as known standard in all in-vitro experiments. For preparation of the stock solution the compound PM181104 was dissolved in chloroform (5% of the total required volume) and diluted using methanol (95% of the total required volume).

[1] = tested on: Enterococcus faecium ATCC 47077; experiment: Kidney infection model; type: in vivo, Balb/C mice
Text: (§2) The in-vivo potency was established by protection dose (PD) determinations of the compound PM181104 for its antibiotic activity in three animal models using either male or female Balb/C mice.
(§3) The models used were the general purpose efficacy testing models and organ/tissue specific efficacy testing models. The general purpose efficacy testing models used were systemic infection model (septicemia), and localized infection model (neutropenic thigh model). The Organ/Tissue specific infection models used for efficacy testing were kidney, lung infection, and skin abscess model.
0.2 ml of 2% λ Carrageenan was administered intravenously to Balb/C mice 7 days prior to infection. Overnight grown log phase culture of Enterococcus faecium ATCC 47077 adjusted to approximately 10^9 cfu/ml, was injected intravenously to the mice at a volume of 0.2 ml. PM181104 solution, prepared in cremophor-ethanol formulation as described in example 14, was administered intravenously to the mice at 4 hours, 24 hours and 48 hours post-infection. At 72 hours post infection, the animals were sacrificed and kidneys were harvested to determine the bacterial load. […] Linezolid (manufactured by Glenmark Pharma Ltd; Batch no: K2005028) at 25 mg/kg and Vancomycin hydrochloride (manufactured by HiMedia; Catalogue no: RM217-500 mg; Lot no: 06-0350) at 150 mg/kg dose.

[2] = tested on: methicillin resistant S. aureus E710 (MRSA); type: in vivo, Balb/C mice; settings: Linezolid at 50 mg/kg dose
Text: as §2, §3
Balb/C mice were infected subcutaneously with approximately 10^8 cfu of an overnight grown culture of methicillin resistant S. aureus E710 (MRSA). The bacteria were suspended in 1:1 mixture of 2% cytodex beads in normal saline (0.85% sodium chloride). PM181104 was prepared in cremophor-ethanol formulation as described in example 14. The solution was administered intravenously at 2.5 mg, 5 mg and 10 mg/kg doses, two hours post infection. Each experimental group consisted of six animals. Following abscess formation the animals were sacrificed and abscess harvested to determine the viable counts. […] Linezolid (manufactured by Glenmark Pharma Ltd; Batch no: K2005028) at 50 mg/kg dose.

[3] = tested on: methicillin resistant Staphylococcus aureus E710 (MRSA); experiment: Systemic infection model (septicemia); type: in vivo, Balb/C mice; settings: mice infected intraperitoneally with MRSA E710, administered intravenously immediately after infection
Text: as §2, §3
The animals were infected intraperitoneally with ˜10^8 to 10^9 cfu of an overnight grown culture of methicillin resistant Staphylococcus aureus E710 (MRSA), suspended in normal saline (0.85% sodium chloride). PM181104 solution was prepared in cremophor-ethanol formulation as described in example 14. The solution was administered intravenously at 5 mg, 2.5 mg and 1.25 mg/kg doses, immediately after infection. Each experimental group consisted of ten animals.

S. aureus E-710 [4] = experiment: Neutropenic thigh model; type: in vivo, Balb/C mice; settings: Linezolid at 25 mg/kg dose
Text: as §2, §3
Each experimental group consisted of six animals. PM181104 was prepared in cremophor-ethanol formulation as described in example 14.

S. aureus E-710 [5] = experiment: Lung infection model; type: in vivo, Balb/C mice
Text: as §2, §3
Balb/C mice were rendered neutropenic by intraperitoneally administering 200 mg/kg cyclophosphamide four days and two days prior to infection. On the day of infection, the mice were anesthetized and infected with S. aureus E-710 log-phase culture suspension having bacterial density of approximately 10^6 to 10^7 cfu/ml. 24 and 36 hours post infection the first and second respective dose of drug was administered intravenously. 48 hours post infection, the animals were humanely euthanized and their lungs were aseptically collected to determine the viable count of bacteria. In this model, PM181104 was tested at 5 mg/kg dose prepared in cremophor-ethanol formulation as described in example 14. Two standard antibiotics viz. Linezolid (80 mg/kg single dose at 24 hours post infection) and Vancomycin (110 mg/kg, two doses at 24 and 48 hours post infection) were used as positive controls.

E. faecalis ATCC BAA 472 = experiment: MIC, Macro-broth dilution method; type: cell-based
Text: as §1

[6] = tested on: Staphylococcus aureus subsp. aureus ATCC 33591; type: cell-based; settings: S. aureus MRSA ATCC 33591
Text: as §1

E. faecalis, ATCC 51299 = type: cell-based
Text: as §1

E. faecalis ATCC 51575 = type: cell-based
Text: as §1

S. aureus (E710) = experiment: MIC, Macro-broth dilution method; type: cell-based, Staphylococcus aureus; settings: S. aureus MRSA E710
Text: as §1

E. faecium ATCC 51559 = type: cell-based, Enterococcus faecium
Text: as §1

C=C(NC(=O)C(=C)NC(=O)C1CCCN1C(=O)c1nc(-c2ccc(-c3nc(C(=O)NC(=C)C(=O)NC(C)C(N)=O)cs3)c(-c3csc(C4Cc5nc(cs5)C(=O)NC(Cc5ccccc5)C5=NC(CS5)C(=O)NC(Cc5ccc(OC(=O)CCC)cc5)C(=O)N5CCCC5c5nc(cs5)C(=O)N4)n3)n2)oc1C)C(N)=O (stereo not shown) [Butyric Acid Ester Derivative of PM181104]
MIC (E. faecium (R-2)): 2.5 µg/mL (≈ 1.58 µM)

CC(=O)NC[C@H]1CN(c2ccc(N3CCOCC3)c(F)c2)C(=O)O1 [Linezolid, reference compound]
decrease in bacterial count in kidneys, comparison with PM181104 ([1]; Linezolid at 25 mg/kg): comparable | decrease in bacterial count in abscess, comparison with PM181104 [2]: comparable | PD100 [3]: 25 mg/kg | decrease in viable counts in thigh tissue, comparison with PM181104 (S. aureus E-710 [4]): comparable | activity profile in lung infection, comparison with PM181104 (S. aureus E-710 [5]; Linezolid 80 mg/kg single dose at 24 hours post infection): comparable

C=C(NC(=O)C(=C)NC(=O)C1CCCN1C(=O)c1nc(-c2ccc(-c3nc(C(=O)NC(=C)C(=O)NC(C)C(N)=O)cs3)c(-c3csc(C4Cc5nc(cs5)C(=O)NC(Cc5ccccc5)C5=NC(CS5)C(=O)NC(Cc5ccc(OC(=O)c6cccnc6)cc5)C(=O)N5CCCC5c5nc(cs5)C(=O)N4)n3)n2)oc1C)C(N)=O (stereo not shown) [Nicotinic Acid Ester Derivative of PM181104]
MIC (E. faecalis ATCC BAA 472): 0.312 µg/mL (≈ 0.192 µM) | MIC [6]: >10 µg/mL | MIC (E. faecalis, ATCC 51299): 0.312 µg/mL (≈ 0.192 µM) | MIC (E. faecalis ATCC 51575): 0.312 µg/mL (≈ 0.192 µM) | MIC (S. aureus (E710)): >10 µg/mL | MIC (E. faecium (R-2)): 0.312 µg/mL (≈ 0.192 µM) | MIC (E. faecium ATCC 51559): 0.156 µg/mL (≈ 0.0962 µM)

C=C(NC(=O)C(=C)NC(=O)C1CCCN1C(=O)c1nc(-c2ccc(-c3nc(C(=O)NC(=C)C(=O)NC(C)C(N)=O)cs3)c(-c3csc(C4Cc5nc(cs5)C(=O)NC(Cc5ccccc5)C5=NC(CS5)C(=O)NC(Cc5ccc(OC(=O)CCCCCCCCCCCCCCCCC)cc5)C(=O)N5CCCC5c5nc(cs5)C(=O)N4)n3)n2)oc1C)C(N)=O (stereo not shown) [Stearic Acid Ester Derivative of PM181104]
MIC (E. faecium (R-2)): 1.25 µg/mL (≈ 0.701 µM)

CN[C@H](CC(C)C)C(=O)N[C@H]1C(=O)N[C@@H](CC(N)=O)C(=O)N[C@H]2C(=O)N[C@H]3C(=O)N[C@H](C(=O)N[C@H](C(=O)O)c4cc(O)cc(O)c4-c4cc3ccc4O)[C@H](O)c3ccc(c(Cl)c3)Oc3cc2cc(c3O[C@@H]2O[C@H](CO)[C@@H](O)[C@H](O)[C@H]2O[C@H]2C[C@](C)(N)[C@H](O)[C@H](C)O2)Oc2ccc(cc2Cl)[C@H]1O [Vancomycin hydrochloride, reference compound]
decrease in bacterial count in kidneys, comparison with PM181104 ([1]; Vancomycin hydrochloride at 150 mg/kg dose): comparable | activity profile in lung infection (S. aureus E-710 [5]; Vancomycin 110 mg/kg, two doses at 24 and 48 hours post infection): bactericidal profile
